Legend:
Assay type in all cases: cell-based, Escherichia coli
[1] = system: tac promoter (GFP expression) in E. coli CL182; experiment: GFP expression from the IPTG responsive tac promoter in adhered CL182; settings: without IPTG versus with IPTG (0.2 μM) in Luria broth
Method: (§1) The strains were mixed and grown in the presence of selective antibiotics (tetracycline, ampicillin or chloramphenicol) and the effects were visualised using the IN Cell Analyzer.
(§2) E. coli cultures were grown in batch culture at 37° C. for 16 hours under selective pressure. Cells were pelleted by centrifugation, washed and resuspended in cold PBS. OD600 mn was normalised (to 1) for both cultures and solutions were diluted ten fold in cold PBS. Cells (100 μl) were allowed to settle and adhere to the surface of a Packard microtitre plate (Packard #6005182) at 4° C. for 1 hour. Adhered E. coli were washed twice with PBS (100 μl). Luria broth (100 μl) with or without IPTG (0.2 μM), and ampicillin (100 μg/ml), tetracycline (10 μg/ml) and chloramphenicol (34 μg/ml) were added to adhered cells and incubated at 37° C. for 4 hours and 16 hours. Cells were washed twice with PBS and incubated for 10 minutes in Hoechst 33342 (0.1 μM in PBS). Cells were washed in PBS and imaged sequentially using the UV (365 nm) and blue (488 nm) laser lines to excite Hoechst 33342 and GFP respectively. […]
(§3) The images were then analysed using the algorithms described in FIGS. 7 to 14. […] In addition, the overlap between green and blue fluorescent biofilm was calculated in 3D.

XL1-blue and CL182 cells = experiment: Differential 3D analysis of mixed adhered E. coli cultures grown with selective antibiotics; settings: for inhibition of biofilm development: summary statement referring to FIGS. 17 and 18
Method: as §1
E. coli cultures were grown in batch culture at 37° C. for 16 hours under selective pressure. Cells were pelleted by centrifugation, washed and resuspended in cold PBS. OD600 mn was normalised (to 1) for both cultures and solutions were diluted ten fold in cold PBS. Cells (100 μl) were allowed to settle and adhere to the surface of a Packard microtitre plate (Packard #6005182) at 4° C. for 1 hour. Adhered E. coli were washed twice with PBS (100 μl). Luria broth (100 μl) with or without IPTG (0.2 μM), and ampicillin (100 μg/ml), tetracycline (10 μg/ml) and chloramphenicol (34 μg/ml) were added to adhered cells and incubated at 37° C. for 4 hours and 16 hours. Cells were washed twice with PBS and incubated for 10 minutes in Hoechst 33342 (0.1 μM in PBS). Cells were washed in PBS and imaged sequentially using the UV (365 nm) and blue (488 nm) laser lines to excite Hoechst 33342 and GFP respectively. Emission light was captured using the 450BP65 and 565BP50 filters and collected as 12 bit images; 24 slices were acquired per condition with 1 μm spacing between them.
The images were then analysed using the algorithms described in FIGS. 7 to 14. The voxel dimensions were established prior to conducting the experiment using sub-resolution and super-resolution beads. The analysis thus provides data on the amount of biofilm in both colour planes in three dimensions as described previously. In addition, the overlap between green and blue fluorescent biofilm was calculated in 3D.

E. coli CL182 = experiment: Differential 3D analysis of adhered E. coli cultures (confocal imaging, adhered culture volume); settings: Luria broth, chloramphenicol 34 μg/ml, 37° C., 4 hours and 16 hours
Method: as §1, §2, §3

E. coli XL1-blue = experiment: as above; settings: Luria broth, chloramphenicol 34 μg/ml, 37° C., 4 hours and 16 hours
Method: as §1, §2, §3

SMILES | reduction in the expression of GFP from the tac promoter by CL182 in the absence of IPTG [1] | differential inhibition of growth of XL1-blue and CL182 cells (XL1-blue and CL182 cells; ampicillin 100 μg/ml, tetracycline 10 μg/ml, 37° C., 4 hours and 16 hours, XL1-blue tetracycline resistant, CL182 ampicillin resistant) | inhibition of biofilm development (XL1-blue and CL182 cells) | inhibition of growth of CL182 (E. coli CL182) | inhibition of growth of XL1-blue (E. coli XL1-blue)
CC(C)S[C@@H]1O[C@H](CO)[C@H](O)[C@H](O)[C@H]1O [IPTG] | ~25% | – | – | – | –
CC1(C)S[C@@H]2[C@H](NC(=O)[C@H](N)c3ccccc3)C(=O)N2[C@H]1C(=O)O [ampicillin] | – | Differential inhibition | differentially inhibit | – | –
O=C(N[C@H](CO)[C@H](O)c1ccc([N+](=O)[O-])cc1)C(Cl)Cl [chloramphenicol] | – | – | differentially inhibit | strongly inhibited | strongly inhibited

Source: patent US20060275847A1, “Method for assessing biofilms” (priority 2002, published 2006)
